Assay results: the NIST ThermoML archive (doi:10.1016/j.fluid.2005.05.023)
± gives the expanded uncertainty stated by the source.

Details: Liquid, Vibrating tube method

CCO [ethanol]
mass density (283.15 K, 100 kPa): 798 ± 0.2 kg/m3
mass density (283.15 K, 5000 kPa): 802 ± 0.3 kg/m3
mass density (283.15 K, 10000 kPa): 805.9 ± 0.3 kg/m3
mass density (283.15 K, 15000 kPa): 809.5 ± 0.3 kg/m3
mass density (283.15 K, 20000 kPa): 813 ± 0.3 kg/m3
mass density (283.15 K, 25000 kPa): 816.4 ± 0.3 kg/m3
mass density (283.15 K, 30000 kPa): 819.7 ± 0.4 kg/m3
mass density (283.15 K, 35000 kPa): 822.8 ± 0.4 kg/m3
mass density (283.15 K, 40000 kPa): 825.9 ± 0.4 kg/m3
mass density (283.15 K, 45000 kPa): 828.8 ± 0.4 kg/m3
mass density (293.15 K, 100 kPa): 789.5 ± 0.2 kg/m3
mass density (293.15 K, 5000 kPa): 793.7 ± 0.3 kg/m3
mass density (293.15 K, 10000 kPa): 797.8 ± 0.3 kg/m3
mass density (293.15 K, 15000 kPa): 801.6 ± 0.3 kg/m3
mass density (293.15 K, 20000 kPa): 805.3 ± 0.3 kg/m3
mass density (293.15 K, 25000 kPa): 808.9 ± 0.3 kg/m3
mass density (293.15 K, 30000 kPa): 812.3 ± 0.4 kg/m3
mass density (293.15 K, 35000 kPa): 815.6 ± 0.4 kg/m3
mass density (293.15 K, 40000 kPa): 818.7 ± 0.4 kg/m3
mass density (293.15 K, 45000 kPa): 821.8 ± 0.4 kg/m3
mass density (303.15 K, 100 kPa): 780.9 ± 0.2 kg/m3
mass density (303.15 K, 5000 kPa): 785.3 ± 0.3 kg/m3
mass density (303.15 K, 10000 kPa): 789.6 ± 0.3 kg/m3
mass density (303.15 K, 15000 kPa): 793.7 ± 0.3 kg/m3
mass density (303.15 K, 20000 kPa): 797.5 ± 0.3 kg/m3
mass density (303.15 K, 25000 kPa): 801.3 ± 0.3 kg/m3
mass density (303.15 K, 30000 kPa): 804.8 ± 0.4 kg/m3
mass density (303.15 K, 35000 kPa): 808.2 ± 0.4 kg/m3
mass density (303.15 K, 40000 kPa): 811.5 ± 0.4 kg/m3
mass density (303.15 K, 45000 kPa): 814.7 ± 0.4 kg/m3
mass density (313.15 K, 100 kPa): 772.1 ± 0.2 kg/m3
mass density (313.15 K, 5000 kPa): 776.8 ± 0.3 kg/m3
mass density (313.15 K, 10000 kPa): 781.3 ± 0.3 kg/m3
mass density (313.15 K, 15000 kPa): 785.6 ± 0.3 kg/m3
mass density (313.15 K, 20000 kPa): 789.6 ± 0.3 kg/m3
mass density (313.15 K, 25000 kPa): 793.5 ± 0.4 kg/m3
mass density (313.15 K, 30000 kPa): 797.2 ± 0.4 kg/m3
mass density (313.15 K, 35000 kPa): 800.8 ± 0.4 kg/m3
mass density (313.15 K, 40000 kPa): 804.2 ± 0.4 kg/m3
mass density (313.15 K, 45000 kPa): 807.6 ± 0.5 kg/m3
mass density (323.15 K, 100 kPa): 763.3 ± 0.2 kg/m3
mass density (323.15 K, 5000 kPa): 768.3 ± 0.3 kg/m3
mass density (323.15 K, 10000 kPa): 773 ± 0.3 kg/m3
mass density (323.15 K, 15000 kPa): 777.6 ± 0.3 kg/m3
mass density (323.15 K, 20000 kPa): 781.8 ± 0.3 kg/m3
mass density (323.15 K, 25000 kPa): 785.9 ± 0.4 kg/m3
mass density (323.15 K, 30000 kPa): 789.7 ± 0.4 kg/m3
mass density (323.15 K, 35000 kPa): 793.5 ± 0.4 kg/m3
mass density (323.15 K, 40000 kPa): 797.1 ± 0.4 kg/m3
mass density (323.15 K, 45000 kPa): 800.5 ± 0.5 kg/m3
mass density (333.15 K, 100 kPa): 754 ± 0.2 kg/m3
mass density (333.15 K, 5000 kPa): 759.3 ± 0.3 kg/m3
mass density (333.15 K, 10000 kPa): 764.3 ± 0.3 kg/m3
mass density (333.15 K, 15000 kPa): 769.1 ± 0.3 kg/m3
mass density (333.15 K, 20000 kPa): 773.6 ± 0.3 kg/m3
mass density (333.15 K, 25000 kPa): 777.8 ± 0.4 kg/m3
mass density (333.15 K, 30000 kPa): 781.9 ± 0.4 kg/m3
mass density (333.15 K, 35000 kPa): 785.8 ± 0.4 kg/m3
mass density (333.15 K, 40000 kPa): 789.5 ± 0.5 kg/m3
mass density (333.15 K, 45000 kPa): 793.1 ± 0.5 kg/m3
mass density (343.15 K, 100 kPa): 744.5 ± 0.2 kg/m3
mass density (343.15 K, 5000 kPa): 750.1 ± 0.3 kg/m3
mass density (343.15 K, 10000 kPa): 755.5 ± 0.3 kg/m3
mass density (343.15 K, 15000 kPa): 760.5 ± 0.3 kg/m3
mass density (343.15 K, 20000 kPa): 765.3 ± 0.4 kg/m3
mass density (343.15 K, 25000 kPa): 769.8 ± 0.4 kg/m3
mass density (343.15 K, 30000 kPa): 774 ± 0.4 kg/m3
mass density (343.15 K, 35000 kPa): 778.1 ± 0.4 kg/m3
mass density (343.15 K, 40000 kPa): 782 ± 0.5 kg/m3
mass density (343.15 K, 45000 kPa): 785.7 ± 0.5 kg/m3
mass density (353.15 K, 5000 kPa): 740.6 ± 0.3 kg/m3
mass density (353.15 K, 10000 kPa): 746.4 ± 0.3 kg/m3
mass density (353.15 K, 15000 kPa): 751.7 ± 0.3 kg/m3
mass density (353.15 K, 20000 kPa): 756.7 ± 0.4 kg/m3
mass density (353.15 K, 25000 kPa): 761.5 ± 0.4 kg/m3
mass density (353.15 K, 30000 kPa): 766 ± 0.4 kg/m3
mass density (353.15 K, 35000 kPa): 770.2 ± 0.4 kg/m3
mass density (353.15 K, 40000 kPa): 774.3 ± 0.5 kg/m3
mass density (353.15 K, 45000 kPa): 778.2 ± 0.5 kg/m3

Cc1ccccc1 [toluene]
mass density (283.15 K, 100 kPa): 876.1 ± 0.2 kg/m3
mass density (283.15 K, 5000 kPa): 879.5 ± 0.2 kg/m3
mass density (283.15 K, 10000 kPa): 882.9 ± 0.3 kg/m3
mass density (283.15 K, 15000 kPa): 886.1 ± 0.3 kg/m3
mass density (283.15 K, 20000 kPa): 889.3 ± 0.3 kg/m3
mass density (283.15 K, 25000 kPa): 892.4 ± 0.3 kg/m3
mass density (283.15 K, 30000 kPa): 895.3 ± 0.3 kg/m3
mass density (283.15 K, 35000 kPa): 898.2 ± 0.3 kg/m3
mass density (283.15 K, 40000 kPa): 901 ± 0.3 kg/m3
mass density (283.15 K, 45000 kPa): 903.7 ± 0.3 kg/m3
mass density (293.15 K, 100 kPa): 866.8 ± 0.2 kg/m3
mass density (293.15 K, 5000 kPa): 870.5 ± 0.2 kg/m3
mass density (293.15 K, 10000 kPa): 874.1 ± 0.3 kg/m3
mass density (293.15 K, 15000 kPa): 877.5 ± 0.3 kg/m3
mass density (293.15 K, 20000 kPa): 880.8 ± 0.3 kg/m3
mass density (293.15 K, 25000 kPa): 884 ± 0.3 kg/m3
mass density (293.15 K, 30000 kPa): 887.1 ± 0.3 kg/m3
mass density (293.15 K, 35000 kPa): 890.1 ± 0.3 kg/m3
mass density (293.15 K, 40000 kPa): 893 ± 0.3 kg/m3
mass density (293.15 K, 45000 kPa): 895.9 ± 0.3 kg/m3
mass density (303.15 K, 100 kPa): 857.5 ± 0.2 kg/m3
mass density (303.15 K, 5000 kPa): 861.4 ± 0.2 kg/m3
mass density (303.15 K, 10000 kPa): 865.2 ± 0.3 kg/m3
mass density (303.15 K, 15000 kPa): 868.8 ± 0.3 kg/m3
mass density (303.15 K, 20000 kPa): 872.3 ± 0.3 kg/m3
mass density (303.15 K, 25000 kPa): 875.7 ± 0.3 kg/m3
mass density (303.15 K, 30000 kPa): 879 ± 0.3 kg/m3
mass density (303.15 K, 35000 kPa): 882.1 ± 0.3 kg/m3
mass density (303.15 K, 40000 kPa): 885.2 ± 0.3 kg/m3
mass density (303.15 K, 45000 kPa): 888.1 ± 0.3 kg/m3
mass density (313.15 K, 100 kPa): 848.1 ± 0.2 kg/m3
mass density (313.15 K, 5000 kPa): 852.2 ± 0.3 kg/m3
mass density (313.15 K, 10000 kPa): 856.2 ± 0.3 kg/m3
mass density (313.15 K, 15000 kPa): 860 ± 0.3 kg/m3
mass density (313.15 K, 20000 kPa): 863.7 ± 0.3 kg/m3
mass density (313.15 K, 25000 kPa): 867.3 ± 0.3 kg/m3
mass density (313.15 K, 30000 kPa): 870.7 ± 0.3 kg/m3
mass density (313.15 K, 35000 kPa): 874 ± 0.3 kg/m3
mass density (313.15 K, 40000 kPa): 877.2 ± 0.3 kg/m3
mass density (313.15 K, 45000 kPa): 880.3 ± 0.3 kg/m3
mass density (323.15 K, 100 kPa): 838.6 ± 0.2 kg/m3
mass density (323.15 K, 5000 kPa): 843 ± 0.3 kg/m3
mass density (323.15 K, 10000 kPa): 847.2 ± 0.3 kg/m3
mass density (323.15 K, 15000 kPa): 851.3 ± 0.3 kg/m3
mass density (323.15 K, 20000 kPa): 855.2 ± 0.3 kg/m3
mass density (323.15 K, 25000 kPa): 858.9 ± 0.3 kg/m3
mass density (323.15 K, 30000 kPa): 862.5 ± 0.3 kg/m3
mass density (323.15 K, 35000 kPa): 866 ± 0.3 kg/m3
mass density (323.15 K, 40000 kPa): 869.4 ± 0.3 kg/m3
mass density (323.15 K, 45000 kPa): 872.6 ± 0.4 kg/m3
mass density (333.15 K, 100 kPa): 828.8 ± 0.2 kg/m3
mass density (333.15 K, 5000 kPa): 833.5 ± 0.3 kg/m3
mass density (333.15 K, 10000 kPa): 838 ± 0.3 kg/m3
mass density (333.15 K, 15000 kPa): 842.3 ± 0.3 kg/m3
mass density (333.15 K, 20000 kPa): 846.4 ± 0.3 kg/m3
mass density (333.15 K, 25000 kPa): 850.4 ± 0.3 kg/m3
mass density (333.15 K, 30000 kPa): 854.2 ± 0.3 kg/m3
mass density (333.15 K, 35000 kPa): 857.9 ± 0.3 kg/m3
mass density (333.15 K, 40000 kPa): 861.4 ± 0.4 kg/m3
mass density (333.15 K, 45000 kPa): 864.8 ± 0.4 kg/m3
mass density (343.15 K, 100 kPa): 819.2 ± 0.2 kg/m3
mass density (343.15 K, 5000 kPa): 824.1 ± 0.3 kg/m3
mass density (343.15 K, 10000 kPa): 829 ± 0.3 kg/m3
mass density (343.15 K, 15000 kPa): 833.5 ± 0.3 kg/m3
mass density (343.15 K, 20000 kPa): 837.9 ± 0.3 kg/m3
mass density (343.15 K, 25000 kPa): 842.1 ± 0.3 kg/m3
mass density (343.15 K, 30000 kPa): 846 ± 0.3 kg/m3
mass density (343.15 K, 35000 kPa): 849.9 ± 0.4 kg/m3
mass density (343.15 K, 40000 kPa): 853.5 ± 0.4 kg/m3
mass density (343.15 K, 45000 kPa): 857 ± 0.4 kg/m3
mass density (353.15 K, 100 kPa): 809.4 ± 0.2 kg/m3
mass density (353.15 K, 5000 kPa): 814.7 ± 0.3 kg/m3
mass density (353.15 K, 10000 kPa): 819.9 ± 0.3 kg/m3
mass density (353.15 K, 15000 kPa): 824.7 ± 0.3 kg/m3
mass density (353.15 K, 20000 kPa): 829.3 ± 0.3 kg/m3
mass density (353.15 K, 25000 kPa): 833.7 ± 0.3 kg/m3
mass density (353.15 K, 30000 kPa): 837.9 ± 0.3 kg/m3
mass density (353.15 K, 35000 kPa): 841.9 ± 0.4 kg/m3
mass density (353.15 K, 40000 kPa): 845.7 ± 0.4 kg/m3
mass density (353.15 K, 45000 kPa): 849.4 ± 0.4 kg/m3
